According to article PMC8699473, “An Easily Expandable Multi-Drug LC-MS Assay for the Simultaneous Quantification of 57 Oral Antitumor Drugs in Human Plasma” (Cancers, 2021):

What was measured:
[1] = Freeze-thaw stability in spiked pooled human plasma; assay type: physicochemical
[2] = Autosampler stability of ready for injection samples; assay type: physicochemical, human
[3] = parameters: method as in supplement references [1-55] as printed per drug; conditions: minimum steady-state blood plasma concentration after multiple dose administration; ref supplement references [1-55] per drug; cited from earlier work
[4] = Long-term stability in spiked pooled human plasma
[5] = Short-term stability in spiked pooled human plasma (bench-top, 4 °C, 56 °C)

Compound: Cc1nc(Nc2ncc(C(=O)Nc3c(C)cccc3Cl)s2)cc(N2CCN(CCO)CC2)n1 [Dasatinib]
- Freeze-Thaw Accuracy [%] ([1]; validation standard 2xLLOV): 99.1%
- Freeze-Thaw Accuracy [%] ([1]; validation standard LLOV): 108.8%
- Freeze-Thaw Accuracy [%] ([1]; validation standard MOV): 99.1%
- Freeze-Thaw Accuracy [%] ([1]; validation standard ULOV): 102.2%
- Autosampler (24h, 4°C) Accuracy [%] ([2]; validation standard 2xLLOV): 102.9%
- Autosampler (72h, 4°C) Accuracy [%] ([2]; validation standard 2xLLOV): 106.3%
- Autosampler (24h, 4°C) Accuracy [%] ([2]; validation standard LLOV): 116.5%
- Autosampler (72h, 4°C) Accuracy [%] ([2]; validation standard LLOV): 114.9%
- Autosampler (24h, 4°C) Accuracy [%] ([2]; validation standard MOV): 102.8%
- Autosampler (72h, 4°C) Accuracy [%] ([2]; validation standard MOV): 99.0%
- Autosampler (24h, 4°C) Accuracy [%] ([2]; validation standard ULOV): 102.6%
- Autosampler (72h, 4°C) Accuracy [%] ([2]; validation standard ULOV): 101.0%
- cmin [3]: 2.61 ng/mL
- Long-term stability, 1 month, -20°C Accuracy [%] ([4]; validation standard 2xLLOV): 99.2%
- Long-term stability, 1 month, -80°C Accuracy [%] ([4]; validation standard 2xLLOV): 92.5%
- Long-term stability, 2 month, -20°C Accuracy [%] ([4]; validation standard 2xLLOV): 98.2%
- Long-term stability, 2 month, -80°C Accuracy [%] ([4]; validation standard 2xLLOV): 96.3%
- Long-term stability, 3 month, -20°C Accuracy [%] ([4]; validation standard 2xLLOV): 102.0%
- Long-term stability, 3 month, -80°C Accuracy [%] ([4]; validation standard 2xLLOV): 99.1%
- Long-term stability, 6 weeks, 4°C, without daylight Accuracy [%] ([4]; validation standard 2xLLOV): 72.6%
- Long-term stability, 1 month, -20°C Accuracy [%] ([4]; validation standard LLOV): 108.6%
- Long-term stability, 1 month, -80°C Accuracy [%] ([4]; validation standard LLOV): 89.0%
- Long-term stability, 2 month, -20°C Accuracy [%] ([4]; validation standard LLOV): 82.2%
- Long-term stability, 2 month, -80°C Accuracy [%] ([4]; validation standard LLOV): 84.9%
- Long-term stability, 3 month, -20°C Accuracy [%] ([4]; validation standard LLOV): 81.3%
- Long-term stability, 3 month, -80°C Accuracy [%] ([4]; validation standard LLOV): 85.5%
- Long-term stability, 6 weeks, 4°C, without daylight Accuracy [%] ([4]; validation standard LLOV): 79.4%
- Long-term stability, 1 month, -20°C Accuracy [%] ([4]; validation standard MOV): 97.7%
- Long-term stability, 1 month, -80°C Accuracy [%] ([4]; validation standard MOV): 91.3%
- Long-term stability, 2 month, -20°C Accuracy [%] ([4]; validation standard MOV): 92.8%
- Long-term stability, 2 month, -80°C Accuracy [%] ([4]; validation standard MOV): 92.3%
- Long-term stability, 3 month, -20°C Accuracy [%] ([4]; validation standard MOV): 102.9%
- Long-term stability, 3 month, -80°C Accuracy [%] ([4]; validation standard MOV): 101.1%
- Long-term stability, 6 weeks, 4°C, without daylight Accuracy [%] ([4]; validation standard MOV): 102.3%
- Long-term stability, 1 month, -20°C Accuracy [%] ([4]; validation standard ULOV): 97.7%
- Long-term stability, 1 month, -80°C Accuracy [%] ([4]; validation standard ULOV): 93.4%
- Long-term stability, 2 month, -20°C Accuracy [%] ([4]; validation standard ULOV): 95.6%
- Long-term stability, 2 month, -80°C Accuracy [%] ([4]; validation standard ULOV): 100.4%
- Long-term stability, 3 month, -20°C Accuracy [%] ([4]; validation standard ULOV): 104.5%
- Long-term stability, 3 month, -80°C Accuracy [%] ([4]; validation standard ULOV): 105.8%
- Long-term stability, 6 weeks, 4°C, without daylight Accuracy [%] ([4]; validation standard ULOV): 97.9%
- Short-time stability (1h, 56°C) Accuracy [%] ([5]; validation standard 2xLLOV): 47.7%
- Short-time stability (24h, 4°C, without daylight) Accuracy [%] ([5]; validation standard 2xLLOV): 102.2%
- Short-time stability (24h, RT, with daylight) Accuracy [%] ([5]; validation standard 2xLLOV): 90.1%
- Short-time stability (24h, RT, without daylight) Accuracy [%] ([5]; validation standard 2xLLOV): 98.3%
- Short-time stability (1h, 56°C) Accuracy [%] ([5]; validation standard LLOV): 65.9%
- Short-time stability (24h, 4°C, without daylight) Accuracy [%] ([5]; validation standard LLOV): 124.4%
- Short-time stability (24h, RT, with daylight) Accuracy [%] ([5]; validation standard LLOV): 90.7%
- Short-time stability (24h, RT, without daylight) Accuracy [%] ([5]; validation standard LLOV): 115.9%
- Short-time stability (1h, 56°C) Accuracy [%] ([5]; validation standard MOV): 46.4%
- Short-time stability (24h, 4°C, without daylight) Accuracy [%] ([5]; validation standard MOV): 100.1%
- Short-time stability (24h, RT, with daylight) Accuracy [%] ([5]; validation standard MOV): 91.7%
- Short-time stability (24h, RT, without daylight) Accuracy [%] ([5]; validation standard MOV): 90.0%
- Short-time stability (1h, 56°C) Accuracy [%] ([5]; validation standard ULOV): 38.9%
- Short-time stability (24h, 4°C, without daylight) Accuracy [%] ([5]; validation standard ULOV): 96.7%
- Short-time stability (24h, RT, with daylight) Accuracy [%] ([5]; validation standard ULOV): 99.4%
- Short-time stability (24h, RT, without daylight) Accuracy [%] ([5]; validation standard ULOV): 93.1%

Compound: COc1cc2ncnc(Nc3ccc(F)c(Cl)c3)c2cc1OCCCN1CCOCC1 [Gefitinib]
- Freeze-Thaw Accuracy [%] ([1]; validation standard 2xLLOV): 97.6%
- Freeze-Thaw Accuracy [%] ([1]; validation standard LLOV): 92.4%
- Freeze-Thaw Accuracy [%] ([1]; validation standard MOV): 97.8%
- Freeze-Thaw Accuracy [%] ([1]; validation standard ULOV): 97.1%
- Autosampler (24h, 4°C) Accuracy [%] ([2]; validation standard 2xLLOV): 102.3%
- Autosampler (72h, 4°C) Accuracy [%] ([2]; validation standard 2xLLOV): 98.5%
- Autosampler (24h, 4°C) Accuracy [%] ([2]; validation standard LLOV): 91.6%
- Autosampler (72h, 4°C) Accuracy [%] ([2]; validation standard LLOV): 90.7%
- Autosampler (24h, 4°C) Accuracy [%] ([2]; validation standard MOV): 105.6%
- Autosampler (72h, 4°C) Accuracy [%] ([2]; validation standard MOV): 102.2%
- Autosampler (24h, 4°C) Accuracy [%] ([2]; validation standard ULOV): 96.7%
- Autosampler (72h, 4°C) Accuracy [%] ([2]; validation standard ULOV): 97.0%
- cmin [3]: 291 ng/mL
- Long-term stability, 1 month, -20°C Accuracy [%] ([4]; validation standard 2xLLOV): 99.2%
- Long-term stability, 1 month, -80°C Accuracy [%] ([4]; validation standard 2xLLOV): 94.2%
- Long-term stability, 2 month, -20°C Accuracy [%] ([4]; validation standard 2xLLOV): 105.6%
- Long-term stability, 2 month, -80°C Accuracy [%] ([4]; validation standard 2xLLOV): 108.5%
- Long-term stability, 3 month, -20°C Accuracy [%] ([4]; validation standard 2xLLOV): 103.9%
- Long-term stability, 3 month, -80°C Accuracy [%] ([4]; validation standard 2xLLOV): 101.3%
- Long-term stability, 6 weeks, 4°C, without daylight Accuracy [%] ([4]; validation standard 2xLLOV): 89.3%
- Long-term stability, 1 month, -20°C Accuracy [%] ([4]; validation standard LLOV): 95.8%
- Long-term stability, 1 month, -80°C Accuracy [%] ([4]; validation standard LLOV): 89.0%
- Long-term stability, 2 month, -20°C Accuracy [%] ([4]; validation standard LLOV): 101.3%
- Long-term stability, 2 month, -80°C Accuracy [%] ([4]; validation standard LLOV): 102.7%
- Long-term stability, 3 month, -20°C Accuracy [%] ([4]; validation standard LLOV): 100.2%
- Long-term stability, 3 month, -80°C Accuracy [%] ([4]; validation standard LLOV): 99.5%
- Long-term stability, 6 weeks, 4°C, without daylight Accuracy [%] ([4]; validation standard LLOV): 78.5%
- Long-term stability, 1 month, -20°C Accuracy [%] ([4]; validation standard MOV): 100.7%
- Long-term stability, 1 month, -80°C Accuracy [%] ([4]; validation standard MOV): 99.3%
- Long-term stability, 2 month, -20°C Accuracy [%] ([4]; validation standard MOV): 105.1%
- Long-term stability, 2 month, -80°C Accuracy [%] ([4]; validation standard MOV): 104.1%
- Long-term stability, 3 month, -20°C Accuracy [%] ([4]; validation standard MOV): 102.7%
- Long-term stability, 3 month, -80°C Accuracy [%] ([4]; validation standard MOV): 99.9%
- Long-term stability, 6 weeks, 4°C, without daylight Accuracy [%] ([4]; validation standard MOV): 105.7%
- Long-term stability, 1 month, -20°C Accuracy [%] ([4]; validation standard ULOV): 98.5%
- Long-term stability, 1 month, -80°C Accuracy [%] ([4]; validation standard ULOV): 93.5%
- Long-term stability, 2 month, -20°C Accuracy [%] ([4]; validation standard ULOV): 99.2%
- Long-term stability, 2 month, -80°C Accuracy [%] ([4]; validation standard ULOV): 101.3%
- Long-term stability, 3 month, -20°C Accuracy [%] ([4]; validation standard ULOV): 99.2%
- Long-term stability, 3 month, -80°C Accuracy [%] ([4]; validation standard ULOV): 99.2%
- Long-term stability, 6 weeks, 4°C, without daylight Accuracy [%] ([4]; validation standard ULOV): 97.6%
- Short-time stability (1h, 56°C) Accuracy [%] ([5]; validation standard 2xLLOV): 46.0%
- Short-time stability (24h, 4°C, without daylight) Accuracy [%] ([5]; validation standard 2xLLOV): 97.4%
- Short-time stability (24h, RT, with daylight) Accuracy [%] ([5]; validation standard 2xLLOV): 91.9%
- Short-time stability (24h, RT, without daylight) Accuracy [%] ([5]; validation standard 2xLLOV): 92.1%
- Short-time stability (1h, 56°C) Accuracy [%] ([5]; validation standard LLOV): 33.3%
- Short-time stability (24h, 4°C, without daylight) Accuracy [%] ([5]; validation standard LLOV): 90.9%
- Short-time stability (24h, RT, with daylight) Accuracy [%] ([5]; validation standard LLOV): 83.0%
- Short-time stability (24h, RT, without daylight) Accuracy [%] ([5]; validation standard LLOV): 83.7%
- Short-time stability (1h, 56°C) Accuracy [%] ([5]; validation standard MOV): 49.1%
- Short-time stability (24h, 4°C, without daylight) Accuracy [%] ([5]; validation standard MOV): 103.4%
- Short-time stability (24h, RT, with daylight) Accuracy [%] ([5]; validation standard MOV): 96.2%
- Short-time stability (24h, RT, without daylight) Accuracy [%] ([5]; validation standard MOV): 93.8%
- Short-time stability (1h, 56°C) Accuracy [%] ([5]; validation standard ULOV): 42.1%
- Short-time stability (24h, 4°C, without daylight) Accuracy [%] ([5]; validation standard ULOV): 94.9%
- Short-time stability (24h, RT, with daylight) Accuracy [%] ([5]; validation standard ULOV): 88.3%
- Short-time stability (24h, RT, without daylight) Accuracy [%] ([5]; validation standard ULOV): 87.7%
